Experimental data taken from article PMC3591457, “Biodistribution and Elimination Study of Fluorine-18 Labeled N^ε-Carboxymethyl-Lysine following Intragastric and Intravenous Administration” (PLoS ONE, 2013).
“And” between values parts separate entries of the source, which are not always exact repeats. Identical values can stand only once.

Legend:
[1] = ^18F-CML in vitro stability (RCP by paper chromatography at room temperature); format: physicochemical; settings: 6 h at room temperature (26±2°C)
Description: The in vitro stability of ^18F-CML was studied by storing the freshly prepared complex at room temperature (26±2°C) for a period of 6 h. The RCP was evaluated every 0.5 h using paper chromatography to determine its in vitro stability.

[2] = ^18F-CML in vivo stability in mice (radio-HPLC of plasma and urine); set-up: species or system ICR mice
Description: The in vivo stability of the ^18F-CML in mice was determined using arterial blood and urine samples. Male ICR mice (n = 3) were anaesthetised with 2% vaporized isoflurane and injected with a dose of approximately 3.7 MBq of ^18F-CML in 250 µL of normal saline via the tail vein. […] Blood samples were removed immediately and centrifuged at 12,000 rpm for 2 min at 4°C to separate the plasma. The urinary bladder was carefully excised, and the urine was collected from the bladder. The plasma (30 µL) and an aliquot of the urine sample (20 µL) was injected into an HPLC column to analyze the in vivo stability of ^18F-CML in the mice.
The HPLC analysis method was based on using trichloroacetic acid to precipitation plasma proteins, which were subsequently separated by reversed-phase column liquid chromatography using a 150 mm×4.6 mm C18 column with a mobile phase of […] acetonitrile and pure water (55%/45%) and detected based on UV absorbance at 254 nm. Radioactivity signal was detected by a radiochromatography detector (PTW, Freiburg, Germany). The ratio of unchanged ^18F-CML to total radioactivity on the HPLC chromatogram was calculated and expressed as a percentage.

[3] = tested on: RAW264.7 cells; experiment: Cell uptake of ^18F-CML and native CML in RAW264.7 cells; format: cell-based; settings: n=3, P<0.01, blocking with non-radioactive CML
Description: (§1) To compare the different bioactivities of CML and ^18F-CML, two cell lines were evaluated for their capacity to take up native CML and the fluorobenzoylated derivative ^18F-CML. RAW264.7 macrophages and HepG2 liver cells were cultured in DMEM/LOWGLUCOSE, supplemented with 10% fetal bovine serum (FBS), 4.0 mmol/L L-glutamine, 110 mg/L sodium pyruvate, 100 U/mL penicillin, and 100 mg/L streptomycin at 37°C and 5% CO2.
(§2) For ^18F-CML cell uptake studies, RAW264.7 cells and HepG2 cells were seeded into 24-well plates at a density of 4×10^5 cells per well. Radio-tracer ^18F-CML (0.5 µCi/well, 3 µmol/mL) was incubated in a 37°C water bath for 15, 30, 60, and 120 min. At each time point the cells were washed 3 times with phosphate-buffered saline (PBS). The supernatant, washing-up liquid (unbound activity) and the pellet (cell-bound activity) were transferred to new tubes. Triplicates of the counting tubes containing supernatant and cell pellet were counted individually using a gamma counter for 1 min. For the blocking experiment, the uptake was carried out in the presence of the non-radioactive CML(10 µmol/mL) and processed similarly as described above. The uptake (%) of radio-tracer into the cell was determined using a gamma counter according to the following equation: [drawing 1]
(§3) For CML cell uptake ratio studies, unaltered CML (10 µmol/mL) was added to RAW264.7 and HepG2 cell pellets individually. The total proteins of each cell line were initially extracted from the lysates of 4×10^5 cells. […] The supernatants were purified and detected usingby the method described by Drusch et al., which uses an RP-HPLC method with an ortho-phthaldialdehyde (OPA)-derivatisation and fluorescence detection suited for automation. The HPLC analysis method used a 250 mm×4.6 mm C18 column (GROM-SIL 100 ODS-0 AB, Herrenberg, Germany) and detected the fluorescence excitation at 340 nm and emission at 455 nm. The peak identification of CML was confirmed by the retention time and standard addition and was quantified using an external standard. The amount of CML was calculated and expressed as a percentage.

[4] = tested on: HepG2 cells; experiment: Cell uptake of ^18F-CML and native CML in HepG2 cells; format: cell-based; settings: n=3, P<0.01, blocking with non-radioactive CML
Description: as §1, §2, §3

[5] = Biodistribution after intravenous administration; format: in vivo, ICR mice; settings: for Uptake in bladder, percentage of injected dose per whole tissue / Uptake in brain, percentage of injected dose per whole tissue / Uptake in heart, percentage of injected dose per whole tissue / Uptake in intestines, percentage of injected dose per whole tissue / Uptake in kidneys, percentage of injected dose per whole tissue / Uptake in liver, percentage of injected dose per whole tissue / Uptake in lungs, percentage of injected dose per whole tissue / Uptake in muscles, percentage of injected dose per whole tissue / Uptake in pancreas, percentage of injected dose per whole tissue / Uptake in stomach, percentage of injected dose per whole tissue: intravenous administration, n=3, mean ± SD
Description: The biodistribution of ^18F-CML was studied in eighteen young male ICR mice with a weight range of 18–20 g. Nine mice were used for intravenous administration and the other nine mice were used for intragastric administration.
For intravenous administration, ^18F-CML was injected into a lateral tail vein of the animals under light ether anesthesia. The injection volume (2–3 MBq; radiochemical purity 96%) was 0.1 mL. For intragastric administration, 1.5 MBq of ^18F-labeled CML was given via gastrointestinal tract tract.
The mice were sacrificed at 5, 60, and 120 min after administration of ^18F-CML (three mice at each time point). The animals were sacrificed by heart puncture under ether anaesthesia. The tissues and organs of interest were isolated and counted in a well-type γ counter. Additionally, 200 µL of blood was taken from the carotid artery. The distributions of ^18F-CML in different tissues and organs were calculated and expressed as the percent uptake of the injection dose per whole tissue (% ID).

Compound: O=C(O)CNCCCCC(NC(=O)c1ccc([18F])cc1)C(=O)O (stereo not shown) [^18F-CML]
- Radiochemical purity (RCP) retained on storage (in vitro stability) [1]: 98.2±0.3%
- Metabolic products in the urine (radio HPLC) ([2]; 40 min after injection): No metabolic products were observed
- Radioactivity in an unchanged form in the plasma and urine (in vivo stability) ([2]; 60 min after tail vein injection, RP-HPLC): more than 98%
- Uptake of radioactivity in untreated cells relative to unlabelled CML-treated (blocked) cells [3]: 1.8 fold
- Uptake of radioactivity in untreated cells relative to unlabelled CML-treated (blocked) cells [4]: 1.6 fold
- Radioactivity in stomach, lungs, liver and intestines taken together, of the total injected dose ([5]; intravenous): less than 10%
- Uptake in bladder, percentage of injected dose per whole tissue ([5]; 5 min): 26.50±1.70 %ID
- Uptake in brain, percentage of injected dose per whole tissue ([5]; 5 min): 3.04±0.02 %ID
- Uptake in heart, percentage of injected dose per whole tissue ([5]; 5 min): 11.15±0.05 %ID
- Uptake in intestines, percentage of injected dose per whole tissue ([5]; 5 min): 1.02±0.05 %ID
- Uptake in kidneys, percentage of injected dose per whole tissue ([5]; 5 min): 29.30 %ID and 29.30±2.05 %ID
- Uptake in liver, percentage of injected dose per whole tissue ([5]; 5 min): 17.28±2.04 %ID
- Uptake in lungs, percentage of injected dose per whole tissue ([5]; 5 min): 1.65±0.05 %ID
- Uptake in muscles, percentage of injected dose per whole tissue ([5]; 5 min): 8.02±0.82 %ID
- Uptake in pancreas, percentage of injected dose per whole tissue ([5]; 5 min): 0.9±0.04 %ID
- Uptake in stomach, percentage of injected dose per whole tissue ([5]; 5 min): 0.35±0.02 %ID
- Uptake in bladder, percentage of injected dose per whole tissue ([5]; 60 min): 41.28±3.50 %ID
- Uptake in brain, percentage of injected dose per whole tissue ([5]; 60 min): 0.38±0.01 %ID
- Uptake in heart, percentage of injected dose per whole tissue ([5]; 60 min): 5.05±0.01 %ID
- Uptake in intestines, percentage of injected dose per whole tissue ([5]; 60 min): 2.35±0.01 %ID
- Uptake in kidneys, percentage of injected dose per whole tissue ([5]; 60 min): 35.6 %ID and 35.6±4.06 %ID
- Uptake in liver, percentage of injected dose per whole tissue ([5]; 60 min): 9.72±1.62 %ID
- Uptake in lungs, percentage of injected dose per whole tissue ([5]; 60 min): 1.12±0.02 %ID
- Uptake in muscles, percentage of injected dose per whole tissue ([5]; 60 min): 5.17±1.12 %ID
- Uptake in pancreas, percentage of injected dose per whole tissue ([5]; 60 min): 0.01±0.0 %ID
- Uptake in stomach, percentage of injected dose per whole tissue ([5]; 60 min): 0.02±0.01 %ID
- Uptake in bladder, percentage of injected dose per whole tissue ([5]; 120 min): 72.30±5.20 %ID
- Uptake in brain, percentage of injected dose per whole tissue ([5]; 120 min): 0.07±0.00 %ID
- Uptake in heart, percentage of injected dose per whole tissue ([5]; 120 min): 1.03±0.00 %ID
- Uptake in intestines, percentage of injected dose per whole tissue ([5]; 120 min): 0.5±0.00 %ID
- Uptake in kidneys, percentage of injected dose per whole tissue ([5]; 120 min): 18.1 %ID and 18.1±2.65 %ID
- Uptake in liver, percentage of injected dose per whole tissue ([5]; 120 min): 3.28±0.05 %ID
- Uptake in lungs, percentage of injected dose per whole tissue ([5]; 120 min): 0.25±0.00 %ID
- Uptake in muscles, percentage of injected dose per whole tissue ([5]; 120 min): 3.02±0.82 %ID
- Uptake in pancreas, percentage of injected dose per whole tissue ([5]; 120 min): 0.00±0.02 %ID
- Uptake in stomach, percentage of injected dose per whole tissue ([5]; 120 min): 0.01±0.00 %ID
- Injected dose found in the urine and stomach, lungs, liver and intestines ([5]; intravenous, 60 min post-injection): less than 50%
